Experimental data taken from patent publication US20240423962A1, “FASCIN BINDING COMPOUNDS FOR SPINOGENESIS” (Spinogenix, Inc., priority 2018, published 2024).

What was measured:
[1] = tested on: primary mouse cortical neurons; assay: Synaptic density of primary mouse cortical neurons (synaptophysin P38 puncta), FIG. 6; assay type: cell-based; settings: luM, 24 hours of treatment
Description: The effect of the indicated compounds on the synaptic density of primary mouse cortical neurons was determined after 24 hours of treatment. FIG. 6. Primary mouse cortical neurons were treated on day 15 in vitro with fascin-inhibiting small molecules at luM, or with vehicle (DMSO). After 24 hours of treatment, neurons were fixed, immunolabeled for a protein component of synapses, the presynaptic vesicle protein, synaptophysin (P38), and then stained with the nuclear dye DAPI. Immunolabeled neurons were imaged on a Leica confocal microscope. The numbers of P38-immunopositive puncta were analyzed using FUI with the Squash plugin.

fascin = fascin (Homo sapiens, UniProt Q16658); settings: cited from earlier work

## O=C(Nc1nn(Cc2ccc(C(F)(F)F)cc2)c2ccccc12)c1ccco1 [compound 1, N-(1-(4-(trifluoromethyl)benzyl)-1H-indazol-3-yl)furan-2-carboxamide]
[1]
  Spine density compared to comparative compounds: increase spine density more than comparative compounds 1 and 7
[1]; vs vehicle (DMSO)
  Spine density compared to control: increase spine density compared to control
fascin; FIG. 5
  Fascin binding site: bind to fascin at binding site 2
fascin
  Effect of binding on actin-binding sites of fascin: opens actin-binding site 2 and closes actin-binding site 1
